# Test system: EC strains (CRE strains, colistin sensitive)
# Test: MIC of polymyxin B or colistin alone (Table 4)
# Type: cell-based, E. coli
# Design: unit: μg/mL
# Experimental: MIC experiments of the antimicrobial agents were determined by a modified broth microdilution method in accordance with the Clinical and Laboratory Standards Institute (CLSI) guidelines using 96 well culture plates. In brief, serial dilutions of all plates were prepared at different concentrations (μg). The inoculum suspension was prepared by adding isolated colonies from a 18-20 hours on TSA plate into phosphate buffer (0.31 mM, pH 7.2) or in water for injection (BBraun) and adjusting the suspension to a turbidity equivalent to 0.5 McFarland Standard. Each well contained a final bacterial concentration of approximately 5×10^5 colony forming units (CFU)/mL. The plate was covered and incubated at 35° C. for 24 hours. […] For the microdilution plates, turbidity in wells can be measured at OD600 using TECAN infinite M200Pro. MIC was determined as […] concentration that gives a 99 percent inhibition.
substance,measurement,setting,value
Colistin,MIC (antibiotic alone),strain EC 17232,0.195
same,MIC (antibiotic alone),strain EC 17528,0.78
same,MIC (antibiotic alone),strain EC 19963,1.56
